Laboratory results from patent US9920295B2, “Bioreactor for isolation of rare cells and methods of use” (The Trustees of the University of Pennsylvania, priority 2012, dated 2018).

How the values were obtained:
[1] = test system: BM CD34+-derived cells (CD41+ MK); experiment: Ploidy analysis of CD34+-derived cells treated with contractility inhibitors (flow cytometry); format: cell-based, human; conditions: for maximal polyploid cell number: scaled to 10,000 initial cell input
Procedure: Fresh purified bone marrow (BM)-derived humanCD34^+ cells were obtained from either the Penn Xenograft Core Facility or AllCells. Cells from at least 10 different donors were used in this study. Purity of the samples (>98%) was confirmed by flow cytometry with monoclonal antibody against human CD34 conjugated to phycoerythrin (PE). All experiments were performed in hematopoietic stem cell (HSC) expansion media (StemLine-II; Sigma) supplemented with 1× antibiotics, and the following human recombinant cytokines SCF (100 ng/mL) and Tpo (100 ng/mL). In some occasions, the media was also supplemented by G-CSF (100 ng/mL). All cytokines were purchased from R&D Systems. After cells were cultured for 4 days, they were treated with different doses of cellular contractility inhibitors, including (±)-blebbistatin (EMDBiosciences), reversine, ML-7, and Y-27632 (Sigma) for indicated durations of up to 3 days. Unfortunately, longer exposure to drug proves toxic even to polyploidy cells under the present culture conditions. Cells were then resuspended in PBS/2% FBS medium and subjected to ploidy analysis: cells were stained with CD41-FITC (BD Biosciences) at room temperature for 30 min, followed by Hoechst 33342 at 37° C. for 30 min. Then cells were stained with Annexin-V-PE (BD Biosciences) in the Annexin-V staining medium, followed by addition of 7-AAD. Stained cells were subjected to flow cytometric analysis (LSR-II; BD Biosciences): only viable cells (7-AAD^− and Hoechst 33342^+) were analyzed for ploidy. Cells with the DNA content of 8 N or higher were considered polyploid. To quantify absolute number of polyploid cells, viable cell number was counted before flow cytometry by Trypan blue exclusion, and this number was multiplied by percentages of each DNA compartment and subpopulations. Each multiplied number was then normalized by initial cell input number before drug treatment in culture.

CD41+ and CD41− cells = experiment: Label-free MS quantitation of cytoskeletal proteome; format: cell-based, human
Procedure: BM CD34^+-derived cells at day 7 were stained with CD41-FITC at room temperature for 1 h, followed by with Annexin-V-PE (BD Biosciences) in the Annexin-V staining medium for 15 min. Cells were then resuspended in 2% FBS/PBS with 7-AAD. Viable HSC-containing cell populations and differentiated MK lineages at day 7 in culture were separated on the basis of CD41 surface expression by cell sorting performed on a FACS Vantage machine (Becton Dickinson). Dead cells stained with 7-AAD and Annexin-V were excluded from sorting. Sorted cells were directly processed for mass spectrometry (MS) analyses (FIG. 5).
Samples were prepared for mass spectrometry by gel-free (Wiśniewski et al., 2009, Nat Methods, 6:359-362) or in-gel digestion methods. […] Label-free relative peptide quantitation was performed on proportional peak fingerprints (ProPF) of proteins with in-house software coded in Mathematica (Wolfram Research). […] Proteomes from primary MKs were analyzed using this unique method and a selected group of proteins were validated by antibodies (FIG. 13D). COS cells transfected with GFP-NMM-IIA and siRNA […] knockdown were also analyzed by the method, and show increased NMM-IIA expression by 17-fold and partial knockdown (˜40%) of NMM-IIA compared with cells transfected with GFP and scrambled siRNA. There was minimal perturbation to other proteins detected.

EC50 ([1]; dose-response, n≥3 donors, read-out: MK polyploid cell number EC50): 7.6 µM | IC50 ([1]; treatment for 3 d, with or without G-CSF, read-out: CD41+ MK and non-MK polyploid cell number IC50): 7.6 µM
Structure (SMILES): Cc1ccc2c(c1)C(=O)C1(O)CCN(c3ccccc3)C1=N2 (racemic) [blebbistatin, (±)-blebbistatin]
drug dose found to be toxic [1]: ~100 µM | enrichment of mature polyploid MKs [1]: ~10 folds | doubling time of polyploid cell generation ([1]; 20 μM): 18.2 h | Ki ([1]; MK polyploidization / progenitor depletion in cells, read-out: inhibition constant Ki): ~7.6 µM | maximal polyploid cell number ([1]; SCF+Tpo CD41+): 278 | maximal polyploid cell number ([1]; SCF+Tpo CD41−): 1 | maximal polyploid cell number ([1]; SCF+Tpo+G-CSF CD41+): 141 | maximal polyploid cell number ([1]; SCF+Tpo+G-CSF CD41−): 352 | detected proteins up-regulated (CD41+ and CD41− cells; CD41+ cells, treated samples): 75% | indicated proteins with increased expression (CD41+ and CD41− cells; CD41− cells, 3 d treatment): 20%
